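96-well plates; 48 h exposure; 5 concentrations. Endpoints by linear interpolation between flanking doses. Not reached: highest tested concentration assigned. GI50: concentration for 50% inhibition of growth. TGI marks complete inhibition of growth.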

Experiment in all cases: growth of human tumour cells (NCI), 48 h
Experiment [1] has as its system HCC-2998 colon.
Experiment [2] concerns IGROV1 ovarian.
The test system of experiment [3] is KM12 colon.
Experiment [4] concerns PC-3 prostate.
Experiment [5] deals with SK-MEL-2 melanoma.
Experiment [6] has as its system SK-OV-3 ovarian.
The test system of experiment [7] is SN12C renal.
The test system of experiment [8] is SR leukemia.
Experiment [9] concerns SW-620 colon.
The subject of experiment [10] is K-562 leukemia.

Turning to `COc1cc(C2CC(c3cccc(Nc4ccncc4)c3)=NN2c2cc(Cl)cc(Cl)c2)cc(OC)c1OC` (stereo unspecified), the GI50 in experiment [1] is 1.56 µM; in experiment [2], 1.69 µM; in [3], 1.65 µM; in [4], 1.57 µM; in experiment [5] it was 2.05 µM; in experiment [6], 1.86 µM. In addition, the results for the GI50 in experiment [7], in [8] and in experiment [9] were 1.66 µM, 1.64 µM and 1.67 µM, respectively. Also, the TGI in [1] was 2.98 µM; in experiment [2], 3.25 µM; in experiment [3], 3.1 µM; in [4], 3.14 µM; in [5], 4.13 µM; in [6], 3.89 µM. Further, the TGI amounted to 3.14 µM in experiment [7], 3.72 µM in experiment [8] and 3.2 µM in experiment [9].
As for `COc1cc2cc(Oc3ccc(NC(=O)Nc4ccc(F)c(C(F)(F)F)c4)cc3)c(C)nc2cc1OCCN1CCCCC1`, the GI50 in experiment [10] was 1.29 µM; in experiment [3] it was 1.77 µM; in [4] it was 1.45 µM; in experiment [5], 1.84 µM; in [6] it was 1.87 µM. Besides, the TGI was 3.79 µM in experiment [10]; 3.3 µM in experiment [3]; 3.05 µM in experiment [4]; 3.45 µM in experiment [5]; 3.42 µM in experiment [6].
As for `CCOC(=O)c1ncoc1[C@H]1COC(C)(C)O1`, the TGI in experiment [1], in experiment [2], in experiment [10], in [5], in experiment [6] and in experiment [7] was over 100 µM each time. In addition, the TGI in experiment [8] and in experiment [9] was over 100 µM throughout.
For the compound `O=C(c1ccccc1)c1nn(-c2ccc(Cl)cc2)c2nc3nc(-c4ccccc4)cc(=O)n3nc12`, the GI50 in [1] is 29.7 µM; in experiment [2], 18.3 µM; in experiment [10] it was 50.1 µM; in [3], 31.9 µM; in experiment [4], 39.3 µM; in experiment [5], 26.3 µM. The GI50 in experiment [6] was over 100 µM; in [7], 24 µM; in [8] it was 22.9 µM; in experiment [9] it was 49.5 µM. Besides, the TGI in [1] is 66.5 µM; in [2], over 100 µM; in [10], over 100 µM; in experiment [3], over 100 µM; in experiment [4], over 100 µM; in experiment [5] it was 70.4 µM. Besides, the TGI in [6] was over 100 µM; in experiment [7], 59.8 µM; in experiment [8], 57.6 µM; in experiment [9] it was over 100 µM.
